Reference: patent US20030022812A1, “Treating pain by targeting hyperpolarization-activated, cyclic nucleotide-gated channels” (priority 2001, published 2003)

Columns and labels:
[1] = test system: Ih in rabbit sinoatrial node; conditions: rabbit sinoatrial node (Rocchetti et al. 1999); read-out: ED50 of Ih block previously reported; cited from earlier work
[2] = test system: native Ih in normal rat L4 dorsal root ganglion neurons; experiment: Whole cell patch clamp of native Ih in dissociated normal rat L4 DRG neurons, lidocaine block; type: cell-based
Description: Lidocaine was tested for its effect on Ih expressed in dissociated L4 dorsal root ganglion neurons from uninjured rats to determine whether this well known Na channel blocker could have other mechanisms of action.
DRG were extirpated, dissociated and cultured 3-4 days on poly-D-lysine coated coverslips as described in Example 10. Ih was measured using the whole cell configuration of the patch clamp technique according to the methods described in Example 10 with the exception that the pipette solution was the solution used in Example 3. Neurons were challenged with a family of hyperpolarizing voltage pulses (−60 mV to −150 mV in increments of 10 mV) from a holding potential of −50 mV. Ih was determined at the end of 600 msec duration test pulses. Lidocaine was bath-applied at neutral pH and the percent inhibition of control Ih was determined after lidocaine achieved steady state block. Plotted is the steady state current observed at −134 mV as a percent of control after incubation of lidocaine at the indicated concentrations. […] Lidocaine block was reversible. Data were obtained from 3 cells having control Ih densities of −1.5, −2.0 and −2.2 pA/pF.

[3] = test system: Ih; conditions: applied intracellularly at 5 or 10 mM (Perkins et al. 1995); cited from earlier work
[4] = test system: CFA-injected rats; experiment: Tactile allodynia (von Frey) in complete Freund's adjuvant (CFA) paw model of inflammatory pain; type: in vivo, rat; conditions: i.p., ZD7288 10 mg/kg, ibuprofen 30 mg/kg, morphine 3 mg/kg, gabapentin 100 mg/kg
[5] = test system: preclinical models of neuropathic pain; conditions: Chaplan 1999; cited from earlier work
[6] = test system: rat mild thermal injury model; experiment: Spontaneous pain behaviors in rat mild thermal injury (first-degree burn) model; type: in vivo; conditions: 30 and 60 min after i.p. administration

CCN(CC)CC(=O)Nc1c(C)cccc1C [lidocaine]
EC50 [1]: 38.2 µM
reversibility of Ih block [2]: reversible
EC50 ([2]; bath-applied at neutral pH, current at −134 mV, 3 cells, read-out: ED50 of concentration-dependent block of Ih): 23 µM

CC[N+](CC)(CC)CC(=O)Nc1c(C)cccc1C [QX-314]
block of Ih [3]: blocks Ih

CC(C)Cc1ccc(C(C)C(=O)O)cc1 (stereo not shown) [ibuprofen]
suppression of CFA-induced tactile allodynia [4]: suppressed
suppression of CFA-induced tactile allodynia ([4]; listed as Ibuprofen): some efficacy

NCC1(CC(=O)O)CCCCC1 [gabapentin]
suppression of CFA-induced tactile allodynia [4]: not

CCCCN1CCCCC1C(=O)Nc1c(C)cccc1C (stereo not shown) [bupivacaine]
anti-hyperalgesic activity [5]: does not possess any anti-hyperalgesic activity

CN1CC[C@]23c4c5ccc(O)c4O[C@H]2[C@@H](O)C=C[C@H]3[C@H]1C5 [morphine]
suppression of CFA-induced tactile allodynia [4]: suppressed
suppression of spontaneous pain behaviors [6]: near complete suppression
